Source: PubChem BioAssay (NCI)
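These data come from cells grown in 96-well plates and exposed to compound for 48 hours at five concentrations. TGI: concentration producing complete growth inhibition.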

What was measured:
Assay in all cases: NCI-60 cell line screen, 48 h
[1] = system: A498 renal
[2] = system: MDA-MB-231 breast
[3] = system: MOLT-4 leukemia
[4] = system: OVCAR-5 ovarian
[5] = system: SK-MEL-5 melanoma
[6] = system: HS 578T breast
[7] = system: TK-10 renal
[8] = system: SK-MEL-28 melanoma
[9] = system: CCRF-CEM leukemia
[10] = system: OVCAR-3 ovarian
[11] = system: SN12C renal
[12] = system: RPMI-8226 leukemia
[13] = system: NCI/ADR-RES ovarian
[14] = system: MCF7 breast
[15] = system: HT29 colon
[16] = system: HOP-92 NSCLC
[17] = system: SW-620 colon
[18] = system: SR leukemia
[19] = system: COLO 205 colon
[20] = system: NCI-H460 lung

c1ccc2c(c1)-c1ccccc1C2NC1=NCCO1
TGI [1]: 34 µM
TGI [2]: 56 µM
TGI [3]: > 100 µM
TGI [4]: > 100 µM
TGI [5]: 29.1 µM
TGI [6]: > 100 µM
TGI [7]: 83.6 µM
TGI [8]: 55.7 µM
TGI [9]: > 100 µM
TGI [10]: 67.8 µM
TGI [11]: > 100 µM
TGI [12]: 91.9 µM
TGI [13]: > 100 µM
TGI [14]: 60.8 µM
TGI [15]: 60.6 µM
TGI [16]: 36.3 µM
TGI [17]: > 100 µM
TGI [18]: 79.3 µM
TGI [19]: 41 µM
TGI [20]: 27.1 µM

CC(C)C(=O)/C=C/c1c(Cl)cccc1Cl
TGI [1]: 35.5 µM
TGI [2]: 8.94 µM
TGI [3]: > 100 µM
TGI [4]: 11.3 µM
TGI [5]: 18.2 µM
TGI [6]: 9.72 µM
TGI [7]: 24.5 µM
TGI [8]: 20.5 µM
TGI [9]: > 100 µM
TGI [10]: 6.56 µM
TGI [11]: 13.6 µM
TGI [12]: > 100 µM
TGI [13]: 9.23 µM
TGI [14]: 15.8 µM
TGI [15]: 11.2 µM
TGI [16]: 26.6 µM
TGI [17]: 9.13 µM
TGI [18]: > 100 µM
TGI [19]: 22.4 µM
TGI [20]: 5.68 µM

COC(=O)C1Cc2cc3c(cc2C1)CCC3
TGI [1]: > 100 µM
TGI [2]: > 100 µM
TGI [3]: > 100 µM
TGI [4]: > 100 µM
TGI [5]: > 100 µM
TGI [6]: > 100 µM
TGI [7]: > 100 µM
TGI [8]: > 100 µM
TGI [9]: > 100 µM
TGI [10]: > 100 µM
TGI [11]: > 100 µM
TGI [12]: > 100 µM
TGI [13]: > 100 µM
TGI [14]: > 100 µM
TGI [15]: > 100 µM
TGI [16]: > 100 µM
TGI [17]: > 100 µM
TGI [18]: > 100 µM
TGI [19]: > 100 µM
TGI [20]: > 100 µM

O=C(Nc1ccc(Cl)cc1)c1cc(S(=O)(=O)N2CCNNC2=O)c(S)cc1Cl
TGI [1]: > 100 µM
TGI [2]: > 100 µM
TGI [3]: > 100 µM
TGI [4]: > 100 µM
TGI [5]: > 100 µM
TGI [6]: > 100 µM
TGI [7]: > 100 µM
TGI [8]: > 100 µM
TGI [9]: > 100 µM
TGI [10]: > 100 µM
TGI [11]: > 100 µM
TGI [12]: > 100 µM
TGI [13]: > 100 µM
TGI [14]: > 100 µM
TGI [16]: 96.1 µM
TGI [17]: > 100 µM
TGI [18]: > 100 µM
TGI [19]: > 100 µM
TGI [20]: > 100 µM

O=C(NC(OCc1ccccc1)(C(F)(F)F)C(F)(F)F)OCc1ccccc1
TGI [1]: 31.6 µM
TGI [2]: 32.3 µM
TGI [3]: 38.6 µM
TGI [4]: 27.4 µM
TGI [5]: 29.3 µM
TGI [6]: 31.3 µM
TGI [7]: 20.9 µM
TGI [8]: 31.5 µM
TGI [9]: 34.9 µM
TGI [10]: 28.6 µM
TGI [11]: 29.4 µM
TGI [12]: 41.1 µM
TGI [13]: 26.3 µM
TGI [14]: 30.1 µM
TGI [15]: 32.2 µM
TGI [16]: 27.8 µM
TGI [17]: 31.1 µM
TGI [18]: 26.8 µM
TGI [19]: 31.6 µM
TGI [20]: 29.6 µM

COc1ccc2nc3cc(Cl)ccc3c(NCCCCCC(=O)NC(COc3ccc4ccc5cccnc5c4n3)COc3ccc4ccc5cccnc5c4n3)c2c1
TGI [1]: 31 µM
TGI [2]: 36.2 µM
TGI [3]: 12.7 µM
TGI [4]: 47.9 µM
TGI [5]: 30.4 µM
TGI [6]: 73.9 µM
TGI [7]: 32 µM
TGI [8]: 49 µM
TGI [9]: 10.5 µM
TGI [10]: > 100 µM
TGI [11]: 31.6 µM
TGI [12]: 17.3 µM
TGI [13]: 73.7 µM
TGI [14]: 15.1 µM
TGI [15]: > 100 µM
TGI [16]: 44.1 µM
TGI [17]: 33 µM
TGI [18]: 12.3 µM
TGI [19]: 32.2 µM
TGI [20]: 19.1 µM
